These results are taken from patent publication US20180311611A1, “ABSORBENT FOR THE SELECTIVE REMOVAL OF HYDROGEN SULFIDE” (BASF SE, priority 2015, published 2018).

Data set [1] can be described thus: physchem.
Source text: (§1) The pKA values are suitably determined in aqueous solution with an amine concentration of 0.01 mol/kg at the given temperature by determining the pH at the point of half-equivalence of the dissociation stage under consideration by means of addition of hydrochloric acid (1st dissociation stage 0.005 mol/kg; 2nd dissociation stage: 0.015 mol/kg; 3rd dissociation stage: 0.025 mol/kg). Measurement is accomplished using a thermostated closed jacketed vessel in which the liquid was blanketed with nitrogen. The Hamilton Polylite Plus 120 pH electrode was used, which was calibrated with pH 7 and pH 12 buffer solutions.
Data set [2] is described as follows: pKA determination of amines by pH at half-equivalence with hydrochloric acid. The note with it: for pKA (50° C.) / pKA (120° C.): aqueous solution, amine 0.01 mol/kg; for ΔpKA (120 − 50° C.): difference between 120° C. and 50° C.
Source text: as §1

Where two headings read alike, the source gives them in different places.

A word on the pKa: it is the pH at which an ionisable group is half protonated. `CN(C)C1CCCCC1` [Cyclohexyl-N,N-dimethylamine] showed a pKa in data set [1] of 10.
For `CN(C)CCCN1CN(CCCN(C)C)CN(CCCN(C)C)C1` [N,N,N′,N′,N″,N″-Hexamethyl-1,3,5-triazine-1,3,5(2H,4H,6H)-tripropanamine], in data set [2] (dissociation stage pKA1), the “pKA (50° C.)” value was found to be 11.37, the “pKA (120° C.)” value worked out at 9.78 and the “ΔpKA (120 − 50° C.)” value amounted to 1.59. For the same molecule, in data set [2] (dissociation stage pKA2), the “pKA (120° C.)” value was determined as 9.35 and the “ΔpKA (120 − 50° C.)” value is 1.88. Also, in data set [2] (dissociation stage pKA3), the “pKA (50° C.)” value amounted to 10.45, the “pKA (120° C.)” value is listed as 7.97 and the “ΔpKA (120 − 50° C.)” value is on record as 2.48. Also, the pKa in data set [1] (aqueous solution of the amine) was determined as 11.2.
On to `CN(C)CCCN(CCO)CCCN(C)C` [Hydroxyethylbis(dimethylaminopropyl)amine], for which, in data set [2] (dissociation stage pKA1), the “pKA (120° C.)” value was determined as 8.63 and the “ΔpKA (120 − 50° C.)” value is listed as 1.51. In addition, in data set [2] (dissociation stage pKA2), the “pKA (50° C.)” value came to 10.13, the “pKA (120° C.)” value was 8.62 and the “ΔpKA (120 − 50° C.)” value came out at 1.51. In data set [2] (dissociation stage pKA3), the “pKA (50° C.)” value is 10.12, the “pKA (120° C.)” value was 8.69 and the “ΔpKA (120 − 50° C.)” value turned out to be 1.43. In data set [1] (aqueous solution of the amine), this molecule had a pKa of 10.1.
Take `CN(C)C1CCC(N(C)C)CC1` (stereo not shown) [1,4-Bis(dimethylamino)cyclohexane]: in data set [2] (dissociation stage pKA1), the “pKA (120° C.)” value is reported as 8.17 and the “ΔpKA (120 − 50° C.)” value worked out at 1.63. Also, in data set [2] (dissociation stage pKA2), the “pKA (50° C.)” value is reported as 8.01, the “pKA (120° C.)” value is given as 6.67 and the “ΔpKA (120 − 50° C.)” value is 1.34. In data set [1] (aqueous solution of the amine), this molecule yielded a pKa of 9.8.
